Data set [1] addresses T1, HpAgD (Helicobacter pylori, UniProt O24890). Put plainly: Inactivation kinetics of HpAgD. The format is biochemical.
Data set [2] in a line: Stability in aqueous buffer. The format is physicochemical. To be noted: not shown.
A further data set has as its target PAD4 (Homo sapiens, UniProt Q9UM07). Description: PAD4 inhibition. The format is biochemical. The conditions noted are these: for inhibition of PAD4: concentrations as high as 1 mM.
In data set [3] the target is T1, HpAgD. Put plainly: Determination of IC50 values against HpAgD. It counts as biochemical. The conditions noted are these: for inhibition of HpAgD: concentrations as high as 500 μM.
Data set [4] has as its target T1, HpAgD. Description: Irreversibility of inactivation. It counts as biochemical. The conditions noted are these: 1.0 mM inhibitor, 1 h at 37 °C, dialyzed 20 h.
For data set [5], the target named is T1, HpAgD. Description: Site of inactivator modification. To be noted: 5 eq. inactivator, 30 min, tryptic digest.
The target of data set [6] is T1, HpAgD. Put plainly: Substrate protection experiments. The format is biochemical. To be noted: agmatine 0.5 vs 1.0 mM; ABFA 500 μM or ABCA 175 μM.
For another data set, the system named is D198A HpAgD. It counts as biochemical, Helicobacter pylori.
In a further data set the target is T2, Wild Type HpAgD (Helicobacter pylori, UniProt O24890).
T2 sequence (O24890 1-330): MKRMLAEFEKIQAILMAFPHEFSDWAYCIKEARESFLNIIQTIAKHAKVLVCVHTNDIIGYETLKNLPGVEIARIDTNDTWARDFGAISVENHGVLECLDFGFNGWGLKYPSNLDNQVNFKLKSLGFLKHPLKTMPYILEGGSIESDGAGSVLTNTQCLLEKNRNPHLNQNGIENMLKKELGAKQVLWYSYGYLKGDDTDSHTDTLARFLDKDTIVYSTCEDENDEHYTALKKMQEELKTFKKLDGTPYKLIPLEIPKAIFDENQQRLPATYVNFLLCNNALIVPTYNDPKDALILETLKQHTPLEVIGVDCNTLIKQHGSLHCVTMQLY
Description: HpAgD activity assay. The conditions noted are these: for ability to serve as HpAgD substrate: known PAD substrates.

Data set [7] has as its target T1, HpAgD. Description: Metal inhibition of HpAgD. It counts as biochemical. To be noted: 15 min pre-incubation with metal ion, 5.0 mM agmatine.
A further data set has as its system N=C(N)NCCCCN. Put plainly: purified protein, by the assay type. To be noted: other: steady state, D198A HpAgD; pH 8.0; 37.0 °C.
The target of data set [8] is Helicobacter pylori agmatine deiminase (HpAgD), untagged wild type (Helicobacter pylori) (UniProt O24890). Put plainly: SEC. In general terms: In gel filtration, larger molecules generally elute earlier.
Substrate in data set [9]: N=C(N)NCCCCN
Description: purified protein, by the assay type. To be noted: other: steady state, Wild Type HpAgD, pH 8.0, 37 °C.

Setting [10] is: read-out: IC50 HpAgD, 15 min pre-incubation, 0.5 mM Agmatine.

Entries after “also recorded” stand apart in the source; their conditions may differ.

PAD4, sequence (Q9UM07 whole entry): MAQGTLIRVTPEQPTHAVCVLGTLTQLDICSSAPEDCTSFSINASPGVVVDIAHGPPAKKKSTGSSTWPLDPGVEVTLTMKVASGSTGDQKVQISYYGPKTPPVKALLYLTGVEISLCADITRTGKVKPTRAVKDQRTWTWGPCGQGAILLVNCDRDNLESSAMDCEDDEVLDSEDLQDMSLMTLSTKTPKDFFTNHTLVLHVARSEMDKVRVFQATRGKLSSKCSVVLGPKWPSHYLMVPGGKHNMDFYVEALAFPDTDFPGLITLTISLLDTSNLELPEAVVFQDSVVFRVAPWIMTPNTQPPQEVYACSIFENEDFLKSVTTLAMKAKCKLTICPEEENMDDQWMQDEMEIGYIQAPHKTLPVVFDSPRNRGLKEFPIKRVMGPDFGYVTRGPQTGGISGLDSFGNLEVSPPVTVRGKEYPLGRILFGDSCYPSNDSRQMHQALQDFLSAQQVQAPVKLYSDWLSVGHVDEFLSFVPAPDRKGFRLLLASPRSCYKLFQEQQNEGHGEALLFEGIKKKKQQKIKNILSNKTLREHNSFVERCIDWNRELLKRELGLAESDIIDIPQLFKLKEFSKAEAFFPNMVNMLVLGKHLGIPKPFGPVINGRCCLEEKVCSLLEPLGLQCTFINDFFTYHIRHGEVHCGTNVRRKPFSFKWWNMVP

Consider `N=C(CCl)NCCCCN` [ABCA, N-(4-aminobutyl)-2-chloro-ethanimidamide], for which, at HpAgD [1], the Ki is 1200 ± 234 µM and the inactivation efficiency (kinact/KI) was 208 M⁻¹ s⁻¹. Moreover, in [2], the “stability in aqueous buffer” value is “excellent stability”. For the same molecule, at PAD4, the IC50 was greater than 1000 µM and the “inhibition of PAD4” value is “essentially no inhibition was observed”. In addition, 0.87 ± 0.03 µM corresponded to half-maximal inhibition on HpAgD [3] (IC50). At HpAgD [4], the “residual activity after dialysis (irreversibility)” value is “enzyme activity was not recovered; also recorded: irreversibly inhibit HpAgD”. The site of modification result on HpAgD [5] is on record as “modifying Cys324”. Further, the “substrate protection against inactivation” value at HpAgD [6] is given as “substrate can protect against enzyme inactivation”.

For `N=C(CF)NCCCCN` [ABFA, N-(4-aminobutyl)-2-fluoro-ethanimidamide], at HpAgD [1], the Ki amounted to 530 ± 150 µM and the second-order inactivation constant (kinact/KI) is 66.7 M⁻¹ s⁻¹. Further, the “stability in aqueous buffer” value in [2] is “excellent stability”. At PAD4, the half-maximal inhibitory concentration (IC50) was greater than 1000 µM and the “inhibition of PAD4” value is given as “essentially no inhibition was observed”. Further, the half-maximal inhibitory concentration (IC50) on HpAgD [3] was 6.8 ± 0.26 µM. On HpAgD [4], the “residual activity after dialysis (irreversibility)” value is reported as “enzyme activity was not recovered; also recorded: irreversibly inhibit HpAgD”. The site of modification result at HpAgD [5] is “modifying Cys324”. Besides, the “substrate protection against inactivation” value on HpAgD [6] is recorded as “substrate can protect against enzyme inactivation”.

`NCCCCN=C(N)N` [Agmatine]: in the data set on D198A HpAgD, the “decrease in kcat, D198A vs wild type” value amounted to 17 fold and the “increase in Km, D198A vs wild type” value stood at 5 fold. For the same molecule, the “rate (kcat/Km) relative to all other substrates tested” value on Wild Type HpAgD (Wild Type HpAgD) is > 10^4 fold. Also, the kcat at Wild Type HpAgD (steady state, Wild Type HpAgD, pH 8.0, 37 °C) is ~ 5 min^−1.

Turning to `NC(=O)[C@H](CCCN=C(N)N)NC(=O)c1ccccc1` [BAA, N-α-Benzoyl-L-arginine amide], at Wild Type HpAgD, the “ability to serve as HpAgD substrate” value is on record as “none of these compounds served as a substrate”.

`CCOC(=O)[C@H](CCCN=C(N)N)NC(=O)c1ccccc1` [BAEE, N-α-Benzoyl-L-arginine ethyl ester]: the “ability to serve as HpAgD substrate” value at Wild Type HpAgD is “none of these compounds served as a substrate”.

`COC(=O)[C@H](CCCNC(=N)N)NC(=O)c1ccccc1` [BAME, N-α-Benzoyl-L-arginine methyl ester]: the “ability to serve as HpAgD substrate” value at Wild Type HpAgD was “none of these compounds served as a substrate”.

As to `NC(=O)[C@H](CCCN=C(N)CCl)NC(=O)c1ccccc1` [Cl-amidine], the “inhibition of HpAgD” value at HpAgD [3] is recorded as “did not afford HpAgD inhibition”. For the same molecule, at HpAgD [3] (setting [10]), the concentration for half-maximal inhibition (IC50) is greater than 500 µM.

In turn, `[Co+2]` [Co^2+] displayed an IC50 on HpAgD [7] of 13 ± 5.5 µM.

Take `NC(=O)[C@H](CCCN=C(N)CF)NC(=O)c1ccccc1` [F-amidine]: the “inhibition of HpAgD” value against HpAgD [3] is “did not afford HpAgD inhibition”. Further, the IC50 on HpAgD [3] (setting [10]) was greater than 500 µM.

With `[Ni+2]` [Ni^2+], the midpoint of inhibition on HpAgD [7], the IC50, lay at 100 ± 3.9 µM.

In turn, `[Zn+2]` [Zn^2+] registered a half-inhibitory concentration (IC50) against HpAgD [7] of 30 ± 3 µM.

Take “Ac-SGRGK-COO^− (Ac-SGRGK-OH; UniProt P62805 2-6, looked up, fragment) [Ac-H4-5]”: the “ability to serve as HpAgD substrate” value in the data set with Wild Type HpAgD is listed as “none of these compounds served as a substrate”.

As to “D198A HpAgD (Helicobacter pylori 26695; D198A)”, in the data set with N=C(N)NCCCCN, the Michaelis-Menten constant (Km) came out at 170 ± 79.8 µM, the kcat turned out to be 0.00467 s⁻¹ and the kcat/Km was 28.3 M⁻¹ s⁻¹.

“Helicobacter pylori agmatine deiminase (HpAgD), untagged wild type (from UniProt O24890 1-330) (enzyme)” registered a stoichiometry N in data set [8] of 2.

B1: Wild Type HpAgD (Helicobacter pylori 26695) (protein)
chain: T2 sequence (O24890 1-330)
As for B1, in [9], the Km worked out at 33 ± 8.8 µM, the kcat was 0.0817 s⁻¹ and the kcat/Km came to 2450 M⁻¹ s⁻¹.

As a reminder, the kinact/KI is the second-order rate constant of inactivation. The IC50 is the point on the concentration scale where inhibition reaches its midpoint. One may read the kcat as the number of substrate molecules converted per active site and unit of time at saturation. What is called Km is the substrate concentration at which the rate is half of its maximum. The kcat/Km is the second-order rate constant that governs catalysis at low substrate concentration. One may read the stoichiometry N as the number of molecules, sites or subunits per partner or assembly.

(Values after publication PMC2823940 (Bioorganic chemistry, 2009).)
